Test results: patent publication US11077090B2, “Compounds and compositions and uses thereof” (Sunovion Pharmaceuticals Inc., priority 2016, dated 2021)

Legend:
[1] = system: male Sprague-Dawley rats; experiment: Stress induced hyperthermia (SIH) assay; assay type: in vivo; set-up: key: −: No change in Delta T ([…]T); +: Significant decrease in Delta T ([…]T) (P < 0.05 vs vehicle)
From the text: Stress-induced hyperthermia (SIH), mediated by the autonomic nervous system, is well known to occur prior to and during exposure to stress and/or anxiety-inducing situations. In many human anxiety disorders, it occurs as an integral part of the pathology and is often considered a representative symptom of the disease, e.g. in generalized anxiety disorder as defined in DSM-IV. In rodents, acute administration of anxiolytic drugs, such as buspirone or chlordiazepoxide (CDP), are known to reduce the SIH response to stressors such as handling, noise, heat, novelty, or pain. The test involves two measures of rectal temperature repeated in the same animal with a 10-minute interval. On the day prior to testing, male Sprague-Dawley rats from Envigo (n=10 per group) were brought to the experimental room approximately one hour before scheduled lights out and singly housed overnight with food and water ad libitum. On the morning of the experiment, animals were first injected with either vehicle or test compound orally by gavage, or CDP (10 mg/kg, i.p.). One hour following injection, each animal was removed from the holding cage and held in a supine position while the rectal temperature was measured by slowly inserting a rectal probe into the animal's rectum at a length of approximately 0.5 cm. The rectal probe was attached to a PhysiTemp digital thermometer (Fisher Scientific) which provides temperature readings at 0.1° C. accuracy. The probe remained inside the animal for approximately 5 seconds or until body temperature reaches stability. This temperature was recorded as the baseline rectal temperature (T1). The animal was immediately placed back to the holding cage and after a 10-min interval the second rectal temperature (T2) was taken using the same procedure as in measuring T1. Before each insertion, the rectal probe was cleaned with an alcohol pad and lubricated with sterile K-Y jelly. All SIH studies were conducted between 8:00-11:00 a.m. The SIH response was calculated as the difference in temperature between the second and first temperature reading (Delta T, […]T). A reduction in […]T relative to the vehicle condition indicates an anxiolytic drug-like response.

[2] = system: extracellular concentrations of neurotransmitters (DA, 5-HT, NE, ACh) in the prefrontal cortex (PFC); experiment: In vivo microdialysis of the prefrontal cortex; set-up: key: −: No change in extracellular concentration (P < 0.05 vs vehicle); +: Significant increase in extracellular concentration (P < 0.05 vs vehicle); conditions: mice
From the text: (§1) In vivo microdialysis is a biological sampling technique used to evaluate the extracellular concentrations of neurotransmitters in specific brain regions following administration of a test compound to animals. Dysfunctions of brain neurotransmitter systems, such as dopamine (DA), norepinephrine (NE), serotonin (5-HT) and/or acetylcholine (ACh), have been linked to cognitive deficits (e.g., memory impairment, inattention, etc.), which may be observed in human aging, Alzheimer's disease (AD) and Attention Deficit Hyperactivity Disorder (ADHD). Drugs that increase extracellular concentrations of DA, NE, 5-HT and/or ACh in the prefrontal cortex (PFC), such as donepezil and methylphenidate, can reverse cognitive deficits in humans and animals.
(§2) Adult male C57Bl/6 mice (n=6 per group) from Jackson Laboratories were anesthetized using isoflurane (2%, 800 mL/min O2). Bupivacaine/epinephrine was used for local anesthesia and carprofen was used for peri-/post-operative analgesia. The animals were placed in a stereotaxic frame (Kopf instruments, USA) and I-shaped microdialysis probes (polyacrylonitril membrane, BrainLink, the Netherlands) were inserted into the PFC (2 mm exposed membrane; coordinates for the tips of the probes: posterior (AP)=+2.0 mm to bregma, lateral (L)=−0.5 mm to midline and ventral (V)=−3.3 mm to dura, the toothbar set at 0.0 mm) and the NAcc (coordinates for the tips of the probes: posterior (AP)=+0.8 mm to bregma, lateral (L)=+0.9 mm to midline and ventral (V)=−4.2 mm to dura, the toothbar set at 0.0 mm (Paxinos and Franklin, 2001)). After surgery, animals were housed individually in cages and provided food and water ad libitum. In vivo microdialysis experiments were performed one day after surgery. On the day of the experiment, the microdialysis probes were connected with flexible PEEK tubing to a microperfusion pump (Harvard PHD 2000 Syringe pump, Holliston, Mass. or similar). Microdialysis probes were perfused with artificial cerebrospinal fluid (aCSF) containing 147 mM NaCl, 3.0 mM KCl, 1.2 mM CaCl2 and 1.2 mM MgCl2, at a flow rate of […]. Microdialysis samples were collected for 30 minute periods by an automated fraction collector (820 Microsampler, Univentor, Malta or similar) into polystyrene mini-vials already containing 15 μL of 0.02 M formic acid (FA) and 0.04% ascorbic acid in ultrapurified H2O. Four basal samples were collected before the administration of vehicle or test compound (i.p., 5 mL/kg injection volumes). Samples were collected for an additional 240 min following vehicle or compound administration. All the dialysis samples were stored at −80° C. awaiting analysis. After the experiment, the mice were sacrificed and brain tissue was collected for probe verification. Each dialysis sample was analyzed for concentrations of DA, NE, 5-HT and ACh as determined by HPLC with tandem mass spectrometry (MS/MS) detection using labeled isotopes of the analytes of interest as internal standards. Data was expressed as a percentage of basal output, calculated by dividing each post-dose time point with the average basal output=100%. An increase in the post-dose percent basal output of DA, NE, 5-HT and/or ACh in the PFC relative to the vehicle condition indicates a potential cognition-enhancing drug-like response. Graphical representations of the observed changes in neurotransmitter concentrations are shown in the indicated Figures.

[3] = system: extracellular concentrations of neurotransmitters (DA, 5-HT, NE, ACh) in the nucleus accumbens (NAcc); experiment: In vivo microdialysis of the nucleus accumbens; set-up: key: −: No change in extracellular concentration (P < 0.05 vs vehicle); +: Significant increase in extracellular concentration (P < 0.05 vs vehicle); conditions: mice
From the text: as §1, §2

[4] = system: Male C57Bl/6J mice; experiment: Marble burying test; assay type: in vivo; set-up: key: −: No reduction in number of marbles buried; +: Significant reduction in number of marbles buried (P < 0.05 vs vehicle); conditions: 1 mg/kg (i.p.)
Protocol: The marble burying assay is used to evaluate the anxiolytic activity of a test compound. After placement in a novel cage containing glass marbles, mice will bury the marbles. Acute administration of anxiolytic agents, as well as antidepressants, decrease this activity at non-sedating doses. Male C57Bl/6J mice from Jackson Laboratories were used in this study and were acclimatized to the experimental room for at least 1 hour prior to testing. Mice (n=10 per group) were administered sterile water or test compound intraperitoneally (i.p.) or orally by gavage (p.o.), or the positive control chlordiazepoxide (15 mg/kg, i.p.), in 10 mL/kg injection volumes, and returned to their home cages for a 30-minute pretreatment period. The mice were then placed individually in clean cages, containing hard wood bedding and twenty black marbles placed in spaced rows of 4×5. After a 30-minute test session, the number of buried marbles was counted. A marble was considered buried if it was pushed at least two thirds into the bedding. Locomotor activity was monitored by measuring the distance traveled using an overhead camera and Video Tracker Software (ViewPoint Life Sciences Software, France). A reduction in the number of marbles buried relative to the vehicle condition indicates an anxiolytic drug-like effect.

| Compound | Delta T ([…]T) ([1]; 3 mg/kg PO) | PFC [5-HT] (FIG. 2) ([2]; 30 mg/kg IP) | PFC [ACh] (FIG. 4) ([2]; 30 mg/kg IP) | PFC [DA] (FIG. 1) ([2]; 30 mg/kg IP) | PFC [NE] (FIG. 3) ([2]; 30 mg/kg IP) | NAcc [5-HT] (FIG. 6) ([3]; 30 mg/kg IP) | NAcc [ACh] (FIG. 8) ([3]; 30 mg/kg IP) | NAcc [DA] (FIG. 5) ([3]; 30 mg/kg IP) | NAcc [NE] (FIG. 7) ([3]; 30 mg/kg IP) | Marbles Buried [4] | Delta T ([…]T) ([1]; 1 mg/kg PO) | Delta T ([…]T) ([1]; 0.3 mg/kg PO) | PFC [5-HT] (FIG. 2) ([2]; 10 mg/kg IP) | PFC [ACh] (FIG. 4) ([2]; 10 mg/kg IP) | PFC [DA] (FIG. 1) ([2]; 10 mg/kg IP) | PFC [NE] (FIG. 3) ([2]; 10 mg/kg IP) | NAcc [5-HT] (FIG. 6) ([3]; 10 mg/kg IP) | NAcc [ACh] (FIG. 8) ([3]; 10 mg/kg IP) | NAcc [DA] (FIG. 5) ([3]; 10 mg/kg IP) | NAcc [NE] (FIG. 7) ([3]; 10 mg/kg IP) |
| --- | --- | --- | --- | --- | --- | --- | --- | --- | --- | --- | --- | --- | --- | --- | --- | --- | --- | --- | --- | --- |
| Cc1cccc2c1[C@@H](N)[C@@H](C)OC2 (single isomer, unassigned) [Compound 170] | − | − | − | + | + | − | − | − | + | − |  |  |  |  |  |  |  |  |  |  |
| Cc1ccc2c(c1)[C@H](N)[C@H](C)OC2 [Compound 157] |  | + | − | + | + | − | − | − | + | − | − |  |  |  |  |  |  |  |  |  |
| C[C@@H]1OCc2ccccc2[C@H]1N (single isomer, unassigned) [Compound 152] |  |  |  |  |  |  |  |  |  | − |  | − | + | + | + | + | + | − | − | + |
